Consider 26 compounds from ChEMBL document CHEMBL1201862, “PubChem BioAssay data set” (2004).

Some test systems named below: DMS-114; DMS-273; HOP-18; KM-20L2; LXFL 529; M19-MEL; RXF 631; SNB-78; XF498.
Test in all cases: NCI anticancer screen, dose series, 48 h

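Exposure lasted 48 hours, with cells grown in 96-well plates and compounds tested at five concentrations. GI50 marks 50% less growth.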 Calls of active or inactive are those of the source. Cut-off read from the data, not from the text of the source: active = GI50 up to about 1.1 µM and inactive = higher.

Regarding `CC1CCCc2c(CC3CC(=O)NC(=O)C3)n[nH]c21` (configuration not stated), the GI50 in the experiment on DMS-114, in the experiment on DMS-273, with HOP-18, in the experiment on KM-20L2, with LXFL 529 and in the experiment with M19-MEL was > 100 µM (inactive) throughout. Also, the GI50 in the experiment with RXF 631, with SNB-78 and in the experiment with XF498 was > 100 µM (inactive) throughout.

Take `O=C1OC(c2ccccc2)=N/C1=C/NC(CS)C(=O)O` (configuration not stated): the GI50 with DMS-114, in the experiment with DMS-273, with KM-20L2, with LXFL 529, in the experiment on M19-MEL and in the experiment on SNB-78 was > 100 µM (inactive) in each case.

On to `CC(C)(C)c1cc(C2c3cc4c(cc3OC(O)(CO)C2C(=O)O)OCO4)cc(C(C)(C)C)c1O.CC(C)(C)c1cc(C2c3cc4c(cc3OC3(O)COC(=O)C23)OCO4)cc(C(C)(C)C)c1O` (configuration not stated), for which the GI50 in the experiment with DMS-114 was 8.34 µM (inactive); in the experiment with DMS-273, 14 µM (inactive); in the experiment on HOP-18 it was 7.78 µM (inactive); in the experiment on KM-20L2, 17 µM (inactive); in the experiment on M19-MEL, 13.8 µM (inactive); with RXF 631, 13.1 µM (inactive).

For the compound `Cc1ccccc1NC(=O)c1ccc([N+](=O)[O-])cc1`, the GI50 with DMS-114 is 74 µM (inactive); with DMS-273, 80.5 µM (inactive); in the experiment with HOP-18, > 100 µM (inactive); in the experiment on KM-20L2 it was > 100 µM (inactive); in the experiment on LXFL 529, > 100 µM (inactive); in the experiment on M19-MEL it was > 100 µM (inactive). For the same compound, the GI50 in the experiment with SNB-78 and in the experiment with XF498 was > 100 µM (inactive) in each case.

In the case of `COc1cc(Nc2nc3cc(C(F)(F)F)ccc3nc2C)cc(OC)c1OC`, the GI50 is 11.2 µM (inactive) in the experiment with DMS-114; 5.2 µM (inactive) in the experiment with DMS-273; < 0.01 µM (active) in the experiment with HOP-18; 9.91 µM (inactive) in the experiment with LXFL 529; 11.1 µM (inactive) in the experiment on SNB-78; 2.3 µM (inactive) in the experiment on XF498.

As to `Cc1oc2c(C)c3oc(=O)cc(C)c3cc2c1CN`, the GI50 in the experiment on DMS-114 is 41.2 µM (inactive); in the experiment on HOP-18 it was > 100 µM (inactive); in the experiment with KM-20L2, 34.4 µM (inactive); in the experiment on LXFL 529 it was 37.5 µM (inactive); with M19-MEL it was 31 µM (inactive); in the experiment on RXF 631, 29.1 µM (inactive). In addition, the GI50 was 53.5 µM (inactive) in the experiment on SNB-78 and 20.7 µM (inactive) in the experiment on XF498.

On to `CCCCCNC(=O)CCCCCCCCCCCNC(=O)CCCCCCCCCCN1C=CC(=CC=C2C=CC(=O)C=C2)C=C1`, for which the GI50 with DMS-114 is 12.6 µM (inactive); with DMS-273, 23.8 µM (inactive); in the experiment with KM-20L2 it was > 100 µM (inactive); in the experiment with LXFL 529 it was 5.86 µM (inactive); with M19-MEL, 34.4 µM (inactive); in the experiment on RXF 631 it was > 100 µM (inactive). Moreover, the results for the GI50 in the experiment with SNB-78 and in the experiment on XF498 were 15.3 µM (inactive) and 10.3 µM (inactive), respectively.

Regarding `O=[N+]([O-])c1ccc(CNC2=NNS(=O)(=O)c3ccccc32)cc1`, the GI50 in the experiment on DMS-114 is > 100 µM (inactive); with DMS-273, > 100 µM (inactive); in the experiment with KM-20L2, > 100 µM (inactive); in the experiment with LXFL 529, 36.1 µM (inactive); with M19-MEL it was > 100 µM (inactive); in the experiment with RXF 631, > 100 µM (inactive). For the same compound, the GI50 with SNB-78 and in the experiment on XF498 was > 100 µM (inactive) throughout.

As to `O=C(NC1C(=O)NNC1c1ccccc1Cl)c1ccccc1` (configuration not stated), the GI50 with DMS-114, in the experiment with DMS-273, in the experiment with HOP-18, with KM-20L2, in the experiment with LXFL 529 and in the experiment on M19-MEL was > 100 µM (inactive) throughout. Moreover, the GI50 with XF498 is > 100 µM (inactive).

Regarding `O=C1C(=O)N(C(=O)c2ccc(Cl)c(Cl)c2)c2ccc(Cl)cc21`, the GI50 was 27.1 µM (inactive) in the experiment on DMS-114; > 100 µM (inactive) in the experiment on DMS-273; > 100 µM (inactive) in the experiment with HOP-18; 71.4 µM (inactive) in the experiment on LXFL 529; 18.8 µM (inactive) with M19-MEL; > 100 µM (inactive) in the experiment with SNB-78.

As for `CN(C)C(=S)/N=c1\ss/c(=N\C(=S)N(C)C)n1C1CCCCC1`, the GI50 in the experiment on DMS-114 was 0.452 µM (active); in the experiment on KM-20L2, > 100 µM (inactive); in the experiment with M19-MEL, 0.524 µM (active); in the experiment on SNB-78, 49.4 µM (inactive).

As for `COC(=O)c1c(C)cc2c(c1O)C1(O)C(=O)c3cc4c(c(O)c3C(=O)C1(OC)C(O)C2)C(=O)C=C(NC1OC(C)C(OC)C(O)C1OC)C4=O` (configuration not stated), the GI50 in the experiment with DMS-114 is 0.0104 µM (active); in the experiment with DMS-273 it was 0.103 µM (active); in the experiment with KM-20L2 it was 0.104 µM (active); in the experiment on LXFL 529, 0.0679 µM (active); in the experiment with M19-MEL, 0.0196 µM (active); with SNB-78, 0.0521 µM (active). Further, the GI50 in the experiment on XF498 is 0.114 µM (active).

On to `O=C(c1ccco1)N(C(=S)N1CCN(c2ccccc2)CC1)C1CCCCC1`, for which the GI50 was 38.7 µM (inactive) in the experiment with DMS-114; 59.4 µM (inactive) in the experiment on DMS-273; > 100 µM (inactive) in the experiment with HOP-18; 90.4 µM (inactive) in the experiment on KM-20L2; 95.5 µM (inactive) in the experiment with LXFL 529; > 100 µM (inactive) in the experiment on M19-MEL. In addition, in the experiment on SNB-78, the GI50 was > 100 µM (inactive).

`COc1cc(-c2ccccc2)c(OC)cc1CCl`: the GI50 in the experiment with DMS-114, with DMS-273, in the experiment with HOP-18, with KM-20L2, in the experiment with M19-MEL and with RXF 631 was > 100 µM (inactive) throughout. In addition, the GI50 with SNB-78 and with XF498 was > 100 µM (inactive) each time.

As for `COC1CC(C)C(OC)c2cc(O)cc(c2O)NC(=O)/C(C)=C/C=C\C(C)C(OC(N)=O)/C(C)=C\C(C)C1OC` (configuration not stated), the GI50 with DMS-114 was 0.406 µM (active); in the experiment on DMS-273, 0.225 µM (active); with HOP-18 it was 0.0925 µM (active); with KM-20L2, 0.188 µM (active); with LXFL 529, 0.191 µM (active); in the experiment on M19-MEL, 0.437 µM (active). In the experiment with SNB-78, the GI50 was 1.42 µM (inactive).

Regarding `OC(CC1SCCCS1)c1ccccc1` (configuration not stated), the GI50 in the experiment on DMS-114, in the experiment with DMS-273, with HOP-18, in the experiment on KM-20L2, with LXFL 529 and with M19-MEL was > 100 µM (inactive) in each case. Besides, in the experiment on XF498, the GI50 was > 100 µM (inactive).

Turning to `O=C(O)Cc1ccccc1CCc1ccccc1Cl`, the GI50 with DMS-273 was > 100 µM (inactive); with HOP-18, 50.1 µM (inactive); with KM-20L2, > 100 µM (inactive); in the experiment on LXFL 529, > 100 µM (inactive); in the experiment on M19-MEL, 95.5 µM (inactive); in the experiment on SNB-78, > 100 µM (inactive). Moreover, the GI50 in the experiment with XF498 is > 100 µM (inactive).

As for `Cc1cc(N(CCC#N)CCC#N)ccc1/C=C(\NC(=O)/C=C/c1ccccc1)C(=O)NN`, the GI50 with DMS-114, in the experiment with DMS-273, in the experiment with KM-20L2, with LXFL 529, in the experiment with M19-MEL and with SNB-78 was > 100 µM (inactive) each time. For the same compound, in the experiment with XF498, the GI50 is 25.6 µM (inactive).

Consider `O=C(Nc1ccc([N+](=O)[O-])cc1C(=O)O)c1ccc([N+](=O)[O-])cc1`, for which the GI50 was 5.97 µM (inactive) with DMS-114; 31.2 µM (inactive) with DMS-273; 18.4 µM (inactive) with KM-20L2; 24.4 µM (inactive) in the experiment with LXFL 529; 61 µM (inactive) in the experiment on M19-MEL; 21.1 µM (inactive) in the experiment on RXF 631. In addition, in the experiment with XF498, the GI50 was 23.3 µM (inactive).

In the case of `[N-]=[N+]=NC1(Cc2ccccc2)C(=O)Nc2ccccc2C1=O` (configuration not stated), the GI50 in the experiment on DMS-114, in the experiment on DMS-273, with HOP-18, in the experiment on KM-20L2, with LXFL 529 and in the experiment with M19-MEL was > 100 µM (inactive) throughout. For the same compound, the values for the GI50 in the experiment with SNB-78 and in the experiment with XF498 were 52.8 µM (inactive) and > 100 µM (inactive), respectively.

In the case of `O/N=C1/CCCC/C1=C/C=C/c1ccccc1`, the GI50 with HOP-18 was 25.8 µM (inactive); in the experiment on KM-20L2 it was 18.5 µM (inactive); with LXFL 529, 26 µM (inactive); with M19-MEL, 19.7 µM (inactive); in the experiment with SNB-78, 25.5 µM (inactive).

Take `O=[PH](O)c1cc2ccccc2c2ccccc12`: the GI50 in the experiment on DMS-114, in the experiment on DMS-273, in the experiment with HOP-18, in the experiment on KM-20L2, in the experiment with LXFL 529 and in the experiment with M19-MEL was > 100 µM (inactive) throughout. Moreover, the GI50 in the experiment on SNB-78 was > 100 µM (inactive).

As to `CC(=O)OC(CC1(C)C(C)CCC23COC(=O)C2=CCCC31)c1ccoc1` (configuration not stated), the GI50 in the experiment with DMS-114 was 29.9 µM (inactive); with KM-20L2, 19.3 µM (inactive); in the experiment on LXFL 529 it was 18.4 µM (inactive); in the experiment on M19-MEL, 33.8 µM (inactive); with SNB-78, 25.4 µM (inactive); in the experiment with XF498, 20.8 µM (inactive).

With `C=C1C2CC(OC(C)=O)C3(C)C(c4ccoc4)OC(=O)[C@@H](O)[C@]13OC1C[C@H](OC(C)=O)C(C)(C)[C@H](CC(=O)OC)[C@]12C` (some centres not stated), the GI50 with DMS-114, with DMS-273, in the experiment with HOP-18, in the experiment with KM-20L2, with LXFL 529 and with M19-MEL was > 100 µM (inactive) each time. In addition, the GI50 with RXF 631 and in the experiment on SNB-78 was > 100 µM (inactive) throughout.

Consider `N#C/C(=C\c1ccc(O)c(O)c1)C(N)=O`, for which the GI50 is 22.7 µM (inactive) in the experiment with DMS-114; 57.7 µM (inactive) in the experiment with DMS-273; 50.4 µM (inactive) with KM-20L2; 40.7 µM (inactive) in the experiment on LXFL 529; 78.7 µM (inactive) in the experiment on M19-MEL; 56 µM (inactive) in the experiment with RXF 631. The GI50 in the experiment with SNB-78 is > 100 µM (inactive).

Consider `C#C[C@]1(O)CC[C@H]2[C@@H]3CCc4cc(O)ccc4[C@H]3CC[C@@]21C` [ETHINYL ESTRADIOL], for which the GI50 in the experiment with DMS-114 was 16.3 µM (inactive); in the experiment with DMS-273 it was > 10 µM (inactive); in the experiment with HOP-18 it was > 100 µM (inactive); in the experiment with KM-20L2, 16.7 µM (inactive); with LXFL 529 it was 21.5 µM (inactive); in the experiment on M19-MEL, 17.1 µM (inactive). Moreover, the GI50 in the experiment on SNB-78 is 33.4 µM (inactive); with XF498, 28.7 µM (inactive).
